Test results from ChEMBL document CHEMBL1201862, “PubChem BioAssay data set” (2004).
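48-hour exposure; five concentrations; linearly interpolated endpoints. The concentration for 50% growth inhibition is given as GI50.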 Active and inactive are the calls of the source. No stated cut-off is given here; in the data, active = GI50 up to about 1.1 µM and inactive = higher.

Legend:
Experiment in all cases: NCI-60 cell line screen, 48 h
ACHN = tested on: ACHN
RPMI-8226 = tested on: RPMI-8226
K562 = tested on: K562
LOX IMVI = tested on: LOX IMVI
HT-29 = tested on: HT-29
MDA-MB-435 = tested on: MDA-MB-435
BT-549 = tested on: BT-549
SW-620 = tested on: SW-620
HOP-92 = tested on: HOP-92
PC-3 = tested on: PC-3
HOP-62 = tested on: HOP-62
M14 = tested on: M14
RXF 393 = tested on: RXF 393
SK-MEL-5 = tested on: SK-MEL-5
EKVX = tested on: EKVX
KM12 = tested on: KM12
Malme-3M = tested on: Malme-3M
SNB-19 = tested on: SNB-19
TK-10 = tested on: TK-10
UO-31 = tested on: UO-31
NCI/ADR-RES = tested on: NCI/ADR-RES
SF-268 = tested on: SF-268
U-251 = tested on: U-251
UACC-62 = tested on: UACC-62
A498 = tested on: A498
CCRF-CEM = tested on: CCRF-CEM
OVCAR-5 = tested on: OVCAR-5
UACC-257 = tested on: UACC-257
SF-295 = tested on: SF-295
HCC 2998 = tested on: HCC 2998
DU-145 = tested on: DU-145
A549 = tested on: A549
OVCAR-3 = tested on: OVCAR-3
NCI-H226 = tested on: NCI-H226
SK-MEL-28 = tested on: SK-MEL-28
MDA-N = tested on: MDA-N
786-0 = tested on: 786-0
MCF7 = tested on: MCF7
MOLT-4 = tested on: MOLT-4
COLO 205 = tested on: COLO 205
OVCAR-8 = tested on: OVCAR-8
T47D = tested on: T47D
OVCAR-4 = tested on: OVCAR-4
SK-MEL-2 = tested on: SK-MEL-2
NCI-H522 = tested on: NCI-H522
NCI-H23 = tested on: NCI-H23
Hs-578T = tested on: Hs-578T
MDA-MB-231 = tested on: MDA-MB-231
IGROV-1 = tested on: IGROV-1
CAKI-1 = tested on: CAKI-1
SF-539 = tested on: SF-539
SNB-75 = tested on: SNB-75
SR = tested on: SR
HL-60 = tested on: HL-60
SN12C = tested on: SN12C
HCT-116 = tested on: HCT-116
SK-OV-3 = tested on: SK-OV-3
HCT-15 = tested on: HCT-15
NCI-H460 = tested on: NCI-H460

C=CCN1C(=O)CNC1=S
GI50 (ACHN): > 100 µM (inactive) | GI50 (RPMI-8226): > 100 µM (inactive) | GI50 (K562): 40.6 µM (inactive) | GI50 (LOX IMVI): > 100 µM (inactive) | GI50 (HT-29): > 100 µM (inactive) | GI50 (MDA-MB-435): > 100 µM (inactive) | GI50 (BT-549): > 100 µM (inactive) | GI50 (SW-620): > 100 µM (inactive) | GI50 (HOP-92): > 100 µM (inactive) | GI50 (PC-3): > 100 µM (inactive) | GI50 (HOP-62): > 100 µM (inactive) | GI50 (M14): > 100 µM (inactive) | GI50 (RXF 393): > 100 µM (inactive) | GI50 (SK-MEL-5): > 100 µM (inactive) | GI50 (EKVX): > 100 µM (inactive) | GI50 (KM12): > 100 µM (inactive) | GI50 (Malme-3M): > 100 µM (inactive) | GI50 (SNB-19): > 100 µM (inactive) | GI50 (TK-10): > 100 µM (inactive) | GI50 (UO-31): > 100 µM (inactive) | GI50 (NCI/ADR-RES): > 100 µM (inactive) | GI50 (SF-268): > 100 µM (inactive) | GI50 (U-251): > 100 µM (inactive) | GI50 (UACC-62): > 100 µM (inactive) | GI50 (A498): > 100 µM (inactive) | GI50 (CCRF-CEM): 5.35 µM (inactive) | GI50 (OVCAR-5): > 100 µM (inactive) | GI50 (UACC-257): > 100 µM (inactive) | GI50 (SF-295): > 100 µM (inactive) | GI50 (HCC 2998): > 100 µM (inactive) | GI50 (DU-145): > 100 µM (inactive) | GI50 (A549): > 100 µM (inactive) | GI50 (OVCAR-3): > 100 µM (inactive) | GI50 (NCI-H226): > 100 µM (inactive) | GI50 (SK-MEL-28): > 100 µM (inactive) | GI50 (MDA-N): > 100 µM (inactive) | GI50 (786-0): > 100 µM (inactive) | GI50 (MCF7): > 100 µM (inactive) | GI50 (MOLT-4): > 100 µM (inactive) | GI50 (COLO 205): > 100 µM (inactive) | GI50 (OVCAR-8): > 100 µM (inactive) | GI50 (T47D): > 100 µM (inactive) | GI50 (OVCAR-4): > 100 µM (inactive) | GI50 (SK-MEL-2): > 100 µM (inactive) | GI50 (NCI-H522): > 100 µM (inactive) | GI50 (NCI-H23): > 100 µM (inactive) | GI50 (Hs-578T): > 100 µM (inactive) | GI50 (MDA-MB-231): > 100 µM (inactive) | GI50 (IGROV-1): > 100 µM (inactive) | GI50 (CAKI-1): > 100 µM (inactive) | GI50 (SF-539): > 100 µM (inactive) | GI50 (SNB-75): > 100 µM (inactive) | GI50 (SR): > 100 µM (inactive) | GI50 (HL-60): 23.7 µM (inactive) | GI50 (SN12C): > 100 µM (inactive) | GI50 (HCT-116): > 100 µM (inactive) | GI50 (SK-OV-3): > 100 µM (inactive) | GI50 (HCT-15): > 100 µM | GI50 (NCI-H460): > 100 µM (inactive)

Cc1cc2c(c(/C=N/c3ccc(N(C)C)cc3)c1)OC1(C=C2)Oc2ccccc2C(=O)N1C (stereo not drawn)
GI50 (ACHN): 12.2 µM (inactive) | GI50 (RPMI-8226): 5.96 µM (inactive) | GI50 (K562): 4.97 µM (inactive) | GI50 (LOX IMVI): 13 µM (inactive) | GI50 (HT-29): 23.1 µM (inactive) | GI50 (MDA-MB-435): 13 µM (inactive) | GI50 (BT-549): 8.63 µM (inactive) | GI50 (SW-620): 17.3 µM (inactive) | GI50 (HOP-92): 16.4 µM (inactive) | GI50 (PC-3): > 35.5 µM (inactive) | GI50 (HOP-62): > 43 µM (inactive) | GI50 (M14): 14.5 µM (inactive) | GI50 (RXF 393): 11.7 µM (inactive) | GI50 (SK-MEL-5): 13.9 µM (inactive) | GI50 (EKVX): 12.5 µM (inactive) | GI50 (KM12): 15.5 µM (inactive) | GI50 (Malme-3M): 17.7 µM (inactive) | GI50 (SNB-19): 7.96 µM (inactive) | GI50 (TK-10): 16.3 µM (inactive) | GI50 (UO-31): 9.2 µM (inactive) | GI50 (NCI/ADR-RES): 16.5 µM (inactive) | GI50 (SF-268): 17.1 µM (inactive) | GI50 (U-251): 15.1 µM (inactive) | GI50 (UACC-62): 13.1 µM (inactive) | GI50 (A498): 19.7 µM (inactive) | GI50 (CCRF-CEM): 2.71 µM (inactive) | GI50 (OVCAR-5): 17.7 µM (inactive) | GI50 (UACC-257): 14.7 µM (inactive) | GI50 (SF-295): 21.2 µM (inactive) | GI50 (HCC 2998): 16.6 µM (inactive) | GI50 (DU-145): 14 µM (inactive) | GI50 (A549): 20.1 µM (inactive) | GI50 (OVCAR-3): > 35.2 µM (inactive) | GI50 (NCI-H226): 23.9 µM (inactive) | GI50 (SK-MEL-28): 16 µM (inactive) | GI50 (MDA-N): 12.5 µM (inactive) | GI50 (786-0): 14.2 µM (inactive) | GI50 (MCF7): 16.2 µM (inactive) | GI50 (MOLT-4): 1.75 µM (inactive) | GI50 (COLO 205): 17.5 µM (inactive) | GI50 (OVCAR-8): 14.2 µM (inactive) | GI50 (T47D): 12.5 µM (inactive) | GI50 (OVCAR-4): 12.6 µM (inactive) | GI50 (SK-MEL-2): > 39.2 µM (inactive) | GI50 (NCI-H522): 14.4 µM (inactive) | GI50 (NCI-H23): 12.5 µM (inactive) | GI50 (Hs-578T): 21.5 µM (inactive) | GI50 (MDA-MB-231): 3.53 µM (inactive) | GI50 (IGROV-1): 13.2 µM (inactive) | GI50 (CAKI-1): 14.6 µM (inactive) | GI50 (SF-539): 10 µM (inactive) | GI50 (SNB-75): 18 µM (inactive) | GI50 (SR): 54.2 µM (inactive) | GI50 (HL-60): 3.54 µM (inactive) | GI50 (SN12C): 15.7 µM (inactive) | GI50 (HCT-116): 8.22 µM (inactive) | GI50 (SK-OV-3): 24.4 µM (inactive) | GI50 (HCT-15): 8.34 µM | GI50 (NCI-H460): 18.7 µM (inactive)
